From PubChem BioAssay (NCI)
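96-well plates; 48 h exposure; 5 concentrations. Endpoints by linear interpolation between flanking doses. Not reached: highest tested concentration assigned. At the TGI there is no net growth.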

What was measured:
Assay in all cases: DTP human tumour cell line panel, 48 h
786-0 renal = tested on: 786-0 renal
A498 renal = tested on: A498 renal
A549 NSCLC = tested on: A549 NSCLC
ACHN renal = tested on: ACHN renal
BT-549 breast = tested on: BT-549 breast
CAKI-1 renal = tested on: CAKI-1 renal
CCRF-CEM leukemia = tested on: CCRF-CEM leukemia
COLO 205 colon = tested on: COLO 205 colon
DU-145 prostate = tested on: DU-145 prostate
EKVX NSCLC = tested on: EKVX NSCLC
HCC-2998 colon = tested on: HCC-2998 colon
HCT-116 colon = tested on: HCT-116 colon
HCT-15 colon = tested on: HCT-15 colon
HL-60(TB) leukemia = tested on: HL-60(TB) leukemia
HOP-62 NSCLC = tested on: HOP-62 NSCLC
HOP-92 NSCLC = tested on: HOP-92 NSCLC
HS 578T breast = tested on: HS 578T breast
HT29 colon = tested on: HT29 colon
IGROV1 ovarian = tested on: IGROV1 ovarian
K-562 leukemia = tested on: K-562 leukemia
KM12 colon = tested on: KM12 colon
LOX IMVI melanoma = tested on: LOX IMVI melanoma
M14 melanoma = tested on: M14 melanoma
MALME-3M melanoma = tested on: MALME-3M melanoma
MCF7 breast = tested on: MCF7 breast
MDA-MB-231 breast = tested on: MDA-MB-231 breast
MDA-MB-435 = tested on: MDA-MB-435
MDA-N = tested on: MDA-N
MOLT-4 leukemia = tested on: MOLT-4 leukemia
NCI-H226 lung = tested on: NCI-H226 lung
NCI-H23 lung = tested on: NCI-H23 lung
NCI-H460 lung = tested on: NCI-H460 lung
NCI-H522 lung = tested on: NCI-H522 lung
NCI/ADR-RES ovarian = tested on: NCI/ADR-RES ovarian
OVCAR-3 ovarian = tested on: OVCAR-3 ovarian
OVCAR-4 ovarian = tested on: OVCAR-4 ovarian
OVCAR-5 ovarian = tested on: OVCAR-5 ovarian
OVCAR-8 ovarian = tested on: OVCAR-8 ovarian
PC-3 prostate = tested on: PC-3 prostate
RPMI-8226 leukemia = tested on: RPMI-8226 leukemia
RXF 393 renal = tested on: RXF 393 renal
SF-268 CNS = tested on: SF-268 CNS
SF-295 CNS = tested on: SF-295 CNS
SF-539 CNS = tested on: SF-539 CNS
SK-MEL-2 melanoma = tested on: SK-MEL-2 melanoma
SK-MEL-28 melanoma = tested on: SK-MEL-28 melanoma
SK-MEL-5 melanoma = tested on: SK-MEL-5 melanoma
SK-OV-3 ovarian = tested on: SK-OV-3 ovarian
SN12C renal = tested on: SN12C renal
SNB-19 CNS = tested on: SNB-19 CNS
SNB-75 CNS = tested on: SNB-75 CNS
SR leukemia = tested on: SR leukemia
SW-620 colon = tested on: SW-620 colon
T-47D breast = tested on: T-47D breast
TK-10 renal = tested on: TK-10 renal
U251 CNS = tested on: U251 CNS
UACC-257 melanoma = tested on: UACC-257 melanoma
UACC-62 melanoma = tested on: UACC-62 melanoma
UO-31 renal = tested on: UO-31 renal

Structure (SMILES): CC(=O)Nc1ccc2c3c(cc(O)c2c1)N(C(=O)CCCCCC(=O)Nc1ccc2c4c(cc(O)c2c1)N(C(=O)OC(C)(C)C)CC4CCl)CC3CCl (stereo not drawn)
- TGI (786-0 renal): 10.1 µM
- TGI (A498 renal): 5.31 µM
- TGI (A549 NSCLC): > 55 µM
- TGI (ACHN renal): > 100 µM
- TGI (BT-549 breast): 10.9 µM
- TGI (CAKI-1 renal): > 100 µM
- TGI (CCRF-CEM leukemia): 0.648 µM
- TGI (COLO 205 colon): 9.88 µM
- TGI (DU-145 prostate): 3.12 µM
- TGI (EKVX NSCLC): > 100 µM
- TGI (HCC-2998 colon): 3.69 µM
- TGI (HCT-116 colon): 14.4 µM
- TGI (HCT-15 colon): > 100 µM
- TGI (HL-60(TB) leukemia): > 36.1 µM
- TGI (HOP-62 NSCLC): 12 µM
- TGI (HOP-92 NSCLC): 23.7 µM
- TGI (HS 578T breast): > 26.9 µM
- TGI (HT29 colon): > 39.8 µM
- TGI (IGROV1 ovarian): 28.5 µM
- TGI (K-562 leukemia): > 100 µM
- TGI (KM12 colon): 13.6 µM
- TGI (LOX IMVI melanoma): 18.2 µM
- TGI (M14 melanoma): 20.5 µM
- TGI (MALME-3M melanoma): 8.98 µM
- TGI (MCF7 breast): > 35.5 µM
- TGI (MDA-MB-231 breast): 18.5 µM
- TGI (MDA-MB-435): 3.29 µM
- TGI (MDA-N): 3.56 µM
- TGI (MOLT-4 leukemia): > 32.6 µM
- TGI (NCI-H226 lung): 9.56 µM
- TGI (NCI-H23 lung): 3.59 µM
- TGI (NCI-H460 lung): > 21.2 µM
- TGI (NCI-H522 lung): 5.78 µM
- TGI (NCI/ADR-RES ovarian): > 100 µM
- TGI (OVCAR-3 ovarian): 4.54 µM
- TGI (OVCAR-4 ovarian): > 63.6 µM
- TGI (OVCAR-5 ovarian): 35.5 µM
- TGI (OVCAR-8 ovarian): 15.2 µM
- TGI (PC-3 prostate): > 50.2 µM
- TGI (RPMI-8226 leukemia): > 34.6 µM
- TGI (RXF 393 renal): 2.69 µM
- TGI (SF-268 CNS): 6.87 µM
- TGI (SF-295 CNS): > 45.9 µM
- TGI (SF-539 CNS): 13.1 µM
- TGI (SK-MEL-2 melanoma): 4.02 µM
- TGI (SK-MEL-28 melanoma): > 63.2 µM
- TGI (SK-MEL-5 melanoma): 2.98 µM
- TGI (SK-OV-3 ovarian): > 47.6 µM
- TGI (SN12C renal): > 38.3 µM
- TGI (SNB-19 CNS): > 35 µM
- TGI (SNB-75 CNS): 5.22 µM
- TGI (SR leukemia): 4.3 µM
- TGI (SW-620 colon): > 100 µM
- TGI (T-47D breast): 7.82 µM
- TGI (TK-10 renal): > 70.6 µM
- TGI (U251 CNS): 6.75 µM
- TGI (UACC-257 melanoma): > 28.6 µM
- TGI (UACC-62 melanoma): 3.87 µM
- TGI (UO-31 renal): > 100 µM

Structure (SMILES): C=C(C)COC(=O)COCC(=O)OCC(=C)C
- TGI (786-0 renal): > 100 µM
- TGI (A498 renal): > 100 µM
- TGI (A549 NSCLC): > 100 µM
- TGI (ACHN renal): > 100 µM
- TGI (BT-549 breast): > 100 µM
- TGI (CAKI-1 renal): > 100 µM
- TGI (CCRF-CEM leukemia): > 100 µM
- TGI (COLO 205 colon): > 100 µM
- TGI (DU-145 prostate): > 100 µM
- TGI (EKVX NSCLC): > 100 µM
- TGI (HCC-2998 colon): > 100 µM
- TGI (HCT-116 colon): > 100 µM
- TGI (HCT-15 colon): > 100 µM
- TGI (HOP-62 NSCLC): > 100 µM
- TGI (HOP-92 NSCLC): > 100 µM
- TGI (HS 578T breast): > 100 µM
- TGI (HT29 colon): > 100 µM
- TGI (IGROV1 ovarian): > 100 µM
- TGI (K-562 leukemia): > 100 µM
- TGI (KM12 colon): > 100 µM
- TGI (M14 melanoma): > 100 µM
- TGI (MALME-3M melanoma): > 100 µM
- TGI (MCF7 breast): > 100 µM
- TGI (MDA-MB-231 breast): > 100 µM
- TGI (MDA-MB-435): > 100 µM
- TGI (MDA-N): > 100 µM
- TGI (MOLT-4 leukemia): > 100 µM
- TGI (NCI-H226 lung): > 100 µM
- TGI (NCI-H23 lung): > 100 µM
- TGI (NCI-H460 lung): > 100 µM
- TGI (NCI/ADR-RES ovarian): > 100 µM
- TGI (OVCAR-3 ovarian): > 100 µM
- TGI (OVCAR-4 ovarian): > 100 µM
- TGI (OVCAR-5 ovarian): > 100 µM
- TGI (OVCAR-8 ovarian): > 100 µM
- TGI (PC-3 prostate): > 100 µM
- TGI (RPMI-8226 leukemia): > 100 µM
- TGI (RXF 393 renal): > 100 µM
- TGI (SF-268 CNS): > 100 µM
- TGI (SF-295 CNS): > 100 µM
- TGI (SK-MEL-28 melanoma): > 100 µM
- TGI (SK-MEL-5 melanoma): > 100 µM
- TGI (SK-OV-3 ovarian): > 100 µM
- TGI (SN12C renal): > 100 µM
- TGI (SNB-19 CNS): > 100 µM
- TGI (SNB-75 CNS): > 100 µM
- TGI (SR leukemia): > 100 µM
- TGI (SW-620 colon): > 100 µM
- TGI (T-47D breast): > 100 µM
- TGI (TK-10 renal): > 100 µM
- TGI (U251 CNS): > 100 µM
- TGI (UACC-257 melanoma): > 100 µM
- TGI (UACC-62 melanoma): > 100 µM
- TGI (UO-31 renal): > 100 µM
